We go through three molecules from patent publication US9587002B2, “Sequence of nucleotides and peptides GSE 24.2 of dyskerin, which can induce telomerase activity, method for obtaining same, therapeutic compositions and applications thereof” (CONSEJO SUPERIOR DE INVESTIGACIONES CIENTIFICAS, priority 2005, dated 2017).

One data set concerns 293T cells. The data set can be described thus: Cell viability of 293T cell lines treated with cisplatin (crystal violet). Conditions: 293T cells stably expressing the construct vs empty vector pLNCX; cisplatin 0-100 μg/ml, 72 hours. The data set is classed as cell-based, human. How it is done:
FIG. 2.—Cell viability and activation of the JNK and p38 death pathways in 293T cell lines: pLNCX and 24.2, treated with cisplatin. A) Cell viability. After seeding the 293T cells: expressing the empty vector (pLNCX) and GSE 24.2 (24.2) in 24-well plates, they were incubated with concentrations between 0-100 μg/ml of cisplatin. The cell viability was measured by means of the crystal violet technique after 72 hours of exposure to the drug. The data represent the mean of two experiments performed in quadruplicate. B) Activation kinetics. Subsequently, the activation of JNK and p38 was studied using antibodies that specifically recognise the active forms. As a load control, the levels of JNK-1 were detected.
FIG. 4.—Viability of the 293T cell lines: pLNCX, 24.2, DSK5′ and DSK treated with cisplatin. The cell lines described above (pLNCX and 24.2), the DSK 5′ cell line, which expresses a fragment of dyskerin described in the preceding figure, and a fourth one that overexpresses the complete cDNA of dyskerin (DSK) have been used. The viability was analyzed as shown in FIG. 1 A. The data represent the mean of two experiments performed in quadruplicate. […]
Growth curves. […] The number of cells was determined by estimating the absorbance at 595 nm. […]

The subject of data set [1] is hTERT promoter. The data set can be described thus: hTERT-luc reporter (luciferase) assay in 293T cells. The format is cell-based, human. To be noted: 293T cells transiently transfected with construct vs empty vector; hTERT-luc, 24 hours. As for the experimental part:
FIG. 8.—Activity of the hTERT promoter in the 293T cell lines: pLNCX and 24.2 and in 293T cells transiently transfected with the pLNCX-24.2 construct and the pLNCX empty plasmid. A) Both the pLNCX and the 24.2 cells were transiently transfected with 0.25 μg of the hTERT-luc reporter vector. The cells were seeded in 60-mm plates. After 24 hours of transfection, the cells were lysed and the luciferase activity of 10 μg of total protein was quantified. As a transfection control, the cells were co-transfected with a reporter vector, CMV-Renilla. B) The 293T cells were transfected with the pLNCX vector and the 24.2 plasmid (5 μg), and both were co-transfected with 0.25 μg of the hTERT-luc reporter vector. After seeding the cells as in A, they were transfected with pLNCX and 24.2, and co-transfected with the hTERT-luc reporter vector; subsequently, they were treated as in A. As a transfection control, the CMV-Renilla reporter vector was used. The data correspond to the ratio of relative units of luciferase with respect to non-transfected cells. Each point represents the mean±the standard deviation obtained from 3 independent experiments. C) The 293T cells were transfected with the different GSE 24.4, DSK, TRUB I, TRUB II constructs and the pLNCX empty plasmid (5 μg), and co-transfected with 0.25 μg of the hTERT-luc reporter vector. The cells were seeded in 60-mm plates; after 24 hours of transfection, the cells were lysed and the luciferase activity of 10 μg of total protein was quantified. As a transfection control, the cells were co-transfected with a CMV-Renilla reporter vector. The data correspond to the ratio of relative units of luciferase with respect to non-transfected cells. Each point represents the mean±the standard deviation obtained from 3 independent experiments.
FIG. 9.—Activity of the hTERT promoter following treatment with cisplatin. A) Both the pLNCX cell line and the 24.2 cell line were transiently transfected with 0.25 μg of the hTERTIuc reporter vector. After 24 hours of transfection, they were treated with 3 μg/ml of cisplatin for 8 hours. The cells were seeded in 60-mm plates; after 24 hours of transfection and following treatment with cDDP, the cells were lysed and the luciferase activity of 10 μg of total protein was quantified. As a transfection control, the cells were co-transfected with a CMV-Renilla reporter vector. B) 293T cells which, after being transiently transfected with pLNCX and 24.2, were co-transfected with 0.25 μg of the hTERT-luc reporter vector and treated as in A. After seeding the cells as in A, they were transfected with pLNCX and 24.2, and co-transfected with the hTERT-luc reporter vector; subsequently, they were treated as in A. As a transfection control, the CMV-Renilla reporter vector was used. The data correspond to the ratio of relative units of luciferase with respect to non-transfected cells. Each point represents the mean±the standard deviation obtained from 3 independent experiments.
A) The 293T cells were co-transfected with different constructs (10 μg/DNA per million cells) and the hTERT-luc reporter (1 μg per million cells). The specified cell lines were co-transfected with the hTERT-luc reporter and different quantities of the Mad/myc expression vector. (B) The specified cell lines were co-transfected with the HIV-luc reporter and with different quantities of the Mad/myc expression vector. After 24 h of transfection, the cells were stimulated with 50 ng/ml of TNF-α for 6 hours and the luciferase activity was analysed as described above. CMV-Renilla (0.1 μg/ml per million cells) was used as a control for the transfection efficiency. The data represent the mean of two experiments performed in quadruplicate.
The pseudouridine synthase TRUB domain of dyskerin comprises two structural subdomains: the Trub I and II motifs (Zucchini et al., 2003). These two domains are critical to maintain the global protein structure of dyskerin. […]

Data set [2] concerns hTERT promoter. The data set can be described thus: hTERT-luc reporter assay in VA13 cells. The data set is classed as cell-based. To be noted: co-transfection with hTERT-luc, 24 h. How it is done:
FIG. 10.—Telomerase activity and expression levels of hTERT and hTR in the cells of patients with dyskeratosis congenita and in VA13 cells transiently transfected with the 24.2 plasmid or the pLNCX empty vector. A) Telomerase activity measured by means of the TRAP assay in the cells of patients with dyskeratosis congenita (DC-1, DC-2 and DC-3) and in the carrier parent (DC-C) following electroporation of 45 μg of the pLNCX empty plasmid (−) or the pLNCX 24.2 vector (+) by 15 million cells. B) RT-PCR of the RNA from cells of one of the patients with dyskeratosis congenita, DC3 transfected with the empty vector and DC3 transfected with the 24.2 plasmid, using oligos specific for hTERT and hTR. As a starting RNA control, oligos for the amplification of GAPDH were used. C) Telomerase activity in VA13 cells. […] 24 hours later, the telomerase activity was analysed as described above, using dilutions of the protein extracts from each transfection. […] RNA levels were detected as described above. […] After 24 h of transfection, the luciferase activity was analyzed as described above. […]
Luciferase assay. The transcriptional regulation of hTERT was measured by means of the Luciferase reporter gene, preceded by a 3,402-pb sequence of the hTERT promoter. […] The cell lysates were centrifuged and the expression of luciferase was quantified with 10 μg of protein from the supernatant, using a Berthold luminometer. […]
In general terms: A reporter such as luciferase makes a cellular process visible.

With “DSK 5′: construct containing the first 500 nucleotides of human dyskerin, cloned in pLNCX [reference compound]”, in the data set with 293T cells, the “cell viability in response to cisplatin” value is “do not have any activity whatsoever”.
In the case of “Trub I: fragment of GSE 24.2 containing the Trub I domain (SEQ ID NO11, peptide SEQ ID NO12) (DNA GGTTTCATTAATCTTGACAAGCCCTCTAACCCCTCTTCCCATGAGGTGGTAGCC; expressed or natural sequence; listed as Homo sapiens)”, in the data set with hTERT promoter [1], the “activity of the hTERT promoter, transient expression” value is reported as “act by activating the expression of the hTERT promoter”. For the same molecule, the “activity of the hTERT promoter in VA13 cells” value with hTERT promoter [2] is reported as “activated the hTERT promoter”.

B1: Trub II: fragment of GSE 24.2 containing the Trub II domain (SEQ ID NO13, peptide SEQ ID NO14) (nucleic acid, listed as Homo sapiens)
DNA: CACAGTGGTACTCTGGATCCCAAGGTGACTGGTTGTTTAATCGTGTGCATAGAACGAGCCACTCGCTTGGTGAAG
modifications: expressed or natural sequence
On to B1, for which the “activity of the hTERT promoter, transient expression” value in the data set on hTERT promoter [1] was “act by activating the expression of the hTERT promoter”.
